# Results taken from patent publication US20160120898A1, “METHODS AND COMPOSITIONS FOR THE DISRUPTION OF BIOFILMS AND TREATMENT OF DISORDERS CHARACTERIZED BY THE PRESENCE OF BIOFILMS” (BREATHE EASY LIMITED, priority 2013, published 2016).
# B1: alpha dornase: Pulmozyme® (dornase alfa or rhDNase), approved for treatment of CF (protein, UniProt P24855 23-282, looked up)
# Deoxyribonuclease-1: LKIAAFNIQTFGETKMSNATLVSYIVQILSRYDIALVQEVRDSHLTAVGKLLDNLNQDAPDTYHYVVSEPLGRNSYKERYLFVYRPDQVSAVDSYYYDDGCEPCGNDTFNREPAIVRFFSRFTEVREFAIVPLHAAPGDAVAEIDALYDVYLDVQEKWGLEDVMLMGDFNAGCSYVRPSQWSSIRLWTSPTFQWLIPDSADTTATPTHCAYDRIVVAGMLLRGAVVPDSALPFNFQAAYGLSDQLAQAISDHYPVEVMLK
# modifications: dornase alfa
# notes: Pulmozyme® (dornase alfa or rhDNase), approved for treatment of CF
# Experiments:
# [1] = Safety and toxicity of nebulized sodium citrate in healthy volunteers (FEV1, FVC); assay type: in vivo, human; parameters: FEV1 / FVC: unit not given here; details: for FEV1 / FVC: 5 minutes after treatment
# Procedure: The safety and toxicity of aqueous sodium citrate solution was examined as follows. Treatment solutions were prepared by diluting 0 mM, 11 mM and 22 mM sodium citrate in 2 ml of water. The solutions were nebulized and administered to three healthy volunteers in successive treatments, with ascending sodium citrate dosage volumes and a 5 min break between each treatment. The forced expiratory volume in 1 sec (FEV1) and forced vital capacity (FVC) were recorded 5 minutes after each treatment.
# [2] = Sputum pourability (viscosity) test; parameters: key to pourability: “0”=no change; “+++>” dissolved
# Procedure: The ability of sodium citrate solution to decrease the viscosity of sputum samples was examined as follows.
# Three different sputum samples were employed: sample 1 was of a runny consistency; sample 2 was of an intermediate consistency; and sample 3 was of a heavy consistency. 100 ul samples were measured and transferred to assay tubes in duplicate (except for sample 1 which was in short supply) and placed in a 37° C. preheated Thermomixer. 10 ul of saline (0.9% NaCl) was used as a negative control. 5 ul, 10 ul, 50 ul or 100 ul of 55 mM aqueous sodium citrate solution was added per tube and mixed (400 rpm). Each tube was checked for pourability, or viscosity, at 30 sec, 90 sec and 150 sec by observing the movement of the sputum sample along the wall of the tube. The pourability of sample 3 was also checked at 5 minutes. The pourability was graded as follows: “0”=no change to “+++>” dissolved. The results of the study are shown below in Table 2 for samples 1-3, and in FIG. 1.
# [3] = average found with alpha dornase; cited from earlier work
molecule,measurement,setting,value
O=C([O-])CC(O)(CC(=O)[O-])C(=O)[O-].[Na+].[Na+].[Na+] [sodium citrate],FEV1,"[1]; Volunteer 1, 11 mM nebulized",3.90
same,FVC,"[1]; Volunteer 1, 11 mM nebulized",4.66
same,FEV1,"[1]; Volunteer 1, 22 mM nebulized",3.96
same,FVC,"[1]; Volunteer 1, 22 mM nebulized",4.82
same,FEV1,"[1]; Volunteer 2, 11 mM nebulized",2.39
same,FVC,"[1]; Volunteer 2, 11 mM nebulized",3.48
same,FEV1,"[1]; Volunteer 2, 22 mM nebulized",2.28
same,FVC,"[1]; Volunteer 2, 22 mM nebulized",3.40
same,FEV1,"[1]; Volunteer 3, 22 mM nebulized",2.79
same,FVC,"[1]; Volunteer 3, 22 mM nebulized",2.84
same,irritation or other negative side effects,[1]; nebulization in three healthy volunteers,did not result in any irritation or other negative side effects
same,pourability,"[2]; 5 ul added to 100 ul sputum, sample 1 (runny), 30 sec",+++>
same,pourability,"[2]; 5 ul added to 100 ul sputum, sample 1 (runny), 90 sec",+++>
same,pourability,"[2]; 5 ul added to 100 ul sputum, sample 1 (runny), 150 sec",+++>
same,pourability,"[2]; 5 ul added to 100 ul sputum, sample 1 (runny), time 0",+++>
same,pourability,"[2]; 5 ul added to 100 ul sputum, sample 2 (intermediate), 30 sec",0
same,pourability,"[2]; 5 ul added to 100 ul sputum, sample 2 (intermediate), time 0",0
same,pourability,"[2]; 5 ul added to 100 ul sputum, sample 3 (heavy), 30 sec",0
same,pourability,"[2]; 5 ul added to 100 ul sputum, sample 3 (heavy), 5 min",+>
same,pourability,"[2]; 5 ul added to 100 ul sputum, sample 3 (heavy), time 0",0
same,pourability,"[2]; 10 ul added to 100 ul sputum, sample 1 (runny), 30 sec",+++>
same,pourability,"[2]; 10 ul added to 100 ul sputum, sample 1 (runny), 90 sec",+++>
same,pourability,"[2]; 10 ul added to 100 ul sputum, sample 1 (runny), 150 sec",+++>
same,pourability,"[2]; 10 ul added to 100 ul sputum, sample 1 (runny), time 0",+++>
same,pourability,"[2]; 10 ul added to 100 ul sputum, sample 2 (intermediate), 30 sec",0
same,pourability,"[2]; 10 ul added to 100 ul sputum, sample 2 (intermediate), 150 sec",+>
same,pourability,"[2]; 10 ul added to 100 ul sputum, sample 2 (intermediate), time 0",0
same,pourability,"[2]; 10 ul added to 100 ul sputum, sample 3 (heavy), 30 sec",0
same,pourability,"[2]; 10 ul added to 100 ul sputum, sample 3 (heavy), 5 min",++>
same,pourability,"[2]; 10 ul added to 100 ul sputum, sample 3 (heavy), time 0",0
same,pourability,"[2]; 50 ul added to 100 ul sputum, sample 1 (runny), 30 sec",+++>
same,pourability,"[2]; 50 ul added to 100 ul sputum, sample 1 (runny), 90 sec",+++>
same,pourability,"[2]; 50 ul added to 100 ul sputum, sample 1 (runny), 150 sec",+++>
same,pourability,"[2]; 50 ul added to 100 ul sputum, sample 1 (runny), time 0",+++>
same,pourability,"[2]; 50 ul added to 100 ul sputum, sample 2 (intermediate), 150 sec",++>
same,pourability,"[2]; 50 ul added to 100 ul sputum, sample 2 (intermediate), time 0",0
same,pourability,"[2]; 50 ul added to 100 ul sputum, sample 3 (heavy), 90 sec",+>
same,pourability,"[2]; 50 ul added to 100 ul sputum, sample 3 (heavy), 150 sec",+>
same,pourability,"[2]; 50 ul added to 100 ul sputum, sample 3 (heavy), 5 min",+++>
same,pourability,"[2]; 50 ul added to 100 ul sputum, sample 3 (heavy), time 0",0
same,pourability,"[2]; 100 ul added to 100 ul sputum, sample 2 (intermediate), 90 sec",++>
same,pourability,"[2]; 100 ul added to 100 ul sputum, sample 2 (intermediate), 150 sec",+++>
same,pourability,"[2]; 100 ul added to 100 ul sputum, sample 2 (intermediate), time 0",0
same,pourability,"[2]; 100 ul added to 100 ul sputum, sample 3 (heavy), 5 min",+++>
same,pourability,"[2]; 100 ul added to 100 ul sputum, sample 3 (heavy), time 0",0
same,time of maximal effectiveness in reducing sputum viscosity,[2]; following incubation,5 min
B1,"improvement in lung function (FEV1), average",[3],9%
